From ChEMBL document CHEMBL1255534, “Indoloditerpenes from an algicolous isolate of Aspergillus oryzae” (Bioorg Med Chem Lett, 2010) come the findings set out here.

In one data set the test system is Escherichia coli. In words: Antibacterial activity against Escherichia coli at 30 ug/ml by agar diffusion test. The data set is classed as functional. For orientation: Agar diffusion results depend on both activity and mobility in agar.
Data set [1] in a line: Toxicity in Artemia salina assessed as lethal rate at 100 ug/mL. The data set is classed as organism-based. Conditions: in vivo, read-out: Activity.
For another data set, the system named is Fusarium oxysporum. Description: Antifungal activity against Fusarium oxysporum at 30 ug/ml by agar diffusion test. The data set is classed as functional, organism-based.
Another data set concerns Colletotrichum lagenaria. In words: Antifungal activity against Colletotrichum lagenarium at 30 ug/ml by agar diffusion test. The data set is classed as functional, organism-based.

Calls of active or inactive are those of the source. No cut-off for these calls is given here.

As to `CC(C)=C[C@H]1C[C@]2(C)[C@H](CC[C@@]3(C)[C@H]2CC[C@H]2Cc4c([nH]c5ccccc45)[C@@]23C)O1`, in the data set with Escherichia coli, the “diameter of the inhibition zone (DIZ)” value was “inactive”. For the same molecule, in data set [1], the mortality at 100 ug/mL was determined as 74.2%. Further, the outcome with Fusarium oxysporum and in the data set on Colletotrichum lagenaria was inactive.
In the case of `C/C=C1\[C@H]2C=C(C)C[C@]1(N)c1ccc(=O)[nH]c1C2`, the “diameter of the inhibition zone (DIZ)” value with Escherichia coli was “inactive”. The result in the data set with Fusarium oxysporum was inactive.
Take `CC(C)=C[C@H]1C[C@]2(C)[C@H](CC[C@@]3(C)[C@H]2CC[C@H]2CC(=O)c4ccccc4NC(=O)[C@@]23C)O1` [ASPORYZIN A]: in the data set with Escherichia coli, the “diameter of the inhibition zone (DIZ)” value was “inactive”. Further, in data set [1], the mortality at 100 ug/mL was determined as 61.9%. Moreover, the result in the data set on Fusarium oxysporum and in the data set with Colletotrichum lagenaria was inactive.
On to `CC(C)=C[C@H]1C[C@@]2(C)[C@@H]3CC[C@H]4CC5(O)c6ccccc6N5C(=O)[C@@H]4[C@@]3(C)CC[C@@H]2O1` (stereo partly specified) [ASPORYZIN B], for which the “diameter of the inhibition zone (DIZ)” value in the data set with Escherichia coli was “inactive”. Further, the mortality at 100 ug/mL in data set [1] was 42.9%. The result with Fusarium oxysporum and with Colletotrichum lagenaria was inactive.
For `CC(C)(O)/C=C/C[C@]1(C)[C@@H](O)CC[C@@]2(C)[C@H]1CC[C@H]1Cc3c([nH]c4ccccc34)[C@@]12C` [ASPORYZIN C], in the data set with Escherichia coli (read-out: DIZ), the zone of inhibition at 30 µg/mL was determined as 8.3 mm. The mortality at 100 ug/mL in data set [1] stood at 32.8%. For the same molecule, the result in the data set with Fusarium oxysporum and in the data set on Colletotrichum lagenaria was inactive.
`C=C1[C@H](Cc2c[nH]c3ccccc23)CC[C@H]2[C@](C)(CCC=C(C)C)[C@@H](O)CC[C@]12C` [EMENIVEOL]: the “diameter of the inhibition zone (DIZ)” value with Escherichia coli was “inactive”. The mortality at 100 ug/mL in data set [1] was 31.4%. The outcome in the data set on Fusarium oxysporum and in the data set with Colletotrichum lagenaria was inactive.
As for `CC(C)=CCC[C@]1(C)[C@@H](O)CC[C@@]2(C)[C@H]1CC[C@H]1Cc3c([nH]c4ccccc34)[C@@]12C` [EMINDOLE SB], the “diameter of the inhibition zone (DIZ)” value with Escherichia coli is “inactive”. The mortality at 100 ug/mL in data set [1] was found to be 60.3%. Moreover, the outcome in the data set with Fusarium oxysporum and with Colletotrichum lagenaria was inactive.
